Where a name gives a salt, the structure may show the parent alone.
System: MTT (mouse pheochromocytoma)
Assay: IC50 of cell viability (ATP content)
Details: (24 or 48 h)
Outline: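 MTT mouse pheochromocytoma cells in white 1536-well plates were treated for 24 or 48 hrs with library compounds at 8 final concentrations from 0.5 nM to 46 µM. ATP content was measured with CellTiter-Glo luminescence, using positive-control wells as 100% and DMSO wells as 0%. IC50 came from a four-parameter logistic fit.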

SMILES	IC50 of cell viability
NC(=O)C1CC2(NC(=O)NC2=O)c2cc(F)ccc2O1 (configuration not stated) [FIDARESTAT]	> 46 µM
Cl.O=C(COc1ccc(Cl)cc1)N1CCN(Cc2ccc3c(c2)OCO3)CC1 [FIPEXIDE HYDROCHLORIDE]	> 46 µM
O=C(NCC1CCCCN1)c1cc(OCC(F)(F)F)ccc1OCC(F)(F)F (configuration not stated) [FLECAINIDE]	> 46 µM
CN1CCN(c2c(F)cc3c(=O)c(C(=O)O)cn(CCF)c3c2F)CC1 [FLEROXACIN]	> 46 µM
CCC(=O)c1c(O)cc(O)cc1O [FLOPROPIONE]	> 46 µM
COc1ccccc1N1CCN(CCCC(=O)c2ccc(F)cc2)CC1 [FLUANISONUM]	> 46 µM
Cc1onc(-c2c(F)cccc2Cl)c1C(=O)NC1C(=O)N2C1SC(C)(C)C2C(=O)[O-].O.[Na+] (configuration not stated) [FLUCLOXACILLIN MAGNESIUM]	> 46 µM
OC(Cn1cncn1)(Cn1cncn1)c1ccc(F)cc1F [FLUCONAZOLE]	> 46 µM
CCOC(=O)c1ncn2c1CN(C)C(=O)c1cc(F)ccc1-2 [FLUMAZENIL]	> 46 µM
CC1CCC2=C3N1\C=C(C(O)=O)/C(=O)C3=CC(=C2)F (configuration not stated) [FLUMEQUINE]	> 46 µM
Fc1ccc(C(c2ccc(F)cc2)N2CCN(C/C=C/c3ccccc3)CC2)cc1 [FLUNARIZINE]	> 46 µM
CC12C=CC(=O)C=C1[C@@H](F)CC1C2C(O)CC2(C)C1CC[C@]2(O)C(=O)CO (some centres not stated) [FLUPREDNISOLONE]	> 46 µM
FC(F)(F)COCC(F)(F)F [FLUROTYLUM]	> 46 µM
c1ccc(OCc2ccc(CCCN3CCOCC3)cc2)cc1 [FOMOCAINUM]	> 46 µM
C[C@]12CCC(=O)C(=O)C1CC[C@@H]1[C@@H]2CC[C@]2(C)C(=O)CC[C@@H]12 (some centres not stated) [FORMESTANUM]	> 46 µM
CC(C)CN(C[C@@H](OP(=O)([O-])[O-])[C@H](Cc1ccccc1)NC(=O)O[C@@H]1CCOC1)[S+](=O)([O-])c1ccc(N)cc1 [FOSAMPRENAVIR CALCIUM]	> 46 µM
O=C([O-])P(=O)([O-])[O-].[Na+].[Na+].[Na+] [FOSCARNET SODIUM]	> 46 µM
CC1OC1P(=O)([O-])[O-].[Ca+2] (configuration not stated) [FOSFOMYCIN]	> 46 µM
O=C(O)c1ccccc1OP(=O)(O)O [FOSFOSAL]	> 46 µM
O=P(O)(O)OC[C@H]1O[C@](O)(COP(=O)(O)O)[C@@H](O)[C@@H]1O [FOSFRUCTOSUM]	> 46 µM
CCC(=O)O[C@@H](OP(=O)(CCCCc1ccccc1)CC(=O)N1C[C@H](C2CCCCC2)C[C@H]1C(=O)[O-])C(C)C (some centres not stated) [FOSINOPRIL SODIUM]	> 46 µM
N[C@@H](CSCCCO)C(=O)O [FUDOSTEINE]	> 46 µM
COC1C(OC(=O)/C=C/C=C/C=C/C=C/C(=O)O)CCC2(CO2)C1C1(C)OC1CC=C(C)C (configuration not stated) [FUMAGILLIN]	> 46 µM
Cc1nc2c([nH]1)c(=O)n(C)c(=O)n2Cc1ccco1 [FURAFYLLINE]	> 46 µM
O=C([O-])c1cc2cc(Cc3cccnc3)ccc2o1.[Na+] [FUREGRELATE SODIUM]	> 46 µM
C/C(=C(/CCO)SSC[C@@H]1CCCO1)N(C=O)Cc1cnc(C)nc1N [FURSULTIAMINE HYDROCHLORIDE]	> 46 µM

SMILES	IC50 of cell viability
Cc1nc[nH]c1CC1CCc2c(C)c3ccccc3n2C1=O (configuration not stated) [Fabesetron]	> 46 µM
CC(C)\C1=C(/CN(C)[C@@H](C)CC2=CC=CC=C2)N(C)N(C3=CC=CC=C3)C1=O [Famprofazone]	> 46 µM
c1ccc(CCNc2nc(-c3ccccc3)cs2)cc1 [Fanetizole]	> 46 µM
C[C@@H](O)[C@@H]1C(=O)N2C(C(=O)O)=C([C@H]3CCCO3)SC12 (some centres not stated) [Faropenem]	> 46 µM
O=[S+]([O-])(c1cccc2cnccc12)N1CCCNCC1 [Fasudil hydrochloride]	> 46 µM
Cc1nc(-c2ccc(OCC(C)C)c(C#N)c2)sc1C(=O)O [Febuxostat]	> 46 µM
O=C(O)Cc1ccc(-c2ccccc2)cc1 [Felbinac]	> 46 µM
CCOC(=O)\C1=C(/C)N\C(=C(/C1C2=CC=CC(=C2Cl)Cl)C(=O)OC)C (configuration not stated) [Felodipine]	> 46 µM
CN(C)c1ccc(/N=N/S(=O)(=O)[O-])cc1 [Fenaminosulf]	> 46 µM
CCOP(=O)(NC(C)C)Oc1ccc(SC)c(C)c1 (configuration not stated) [Fenamiphos]	> 46 µM
Nc1nnnn1-c1ccccc1 [Fenamol]	> 46 µM
Nc1ccc(/N=N/c2ccccc2)c(N)n1 [Fenazopiridina]	> 46 µM
O=C(O)CCC(=O)c1ccc(-c2ccccc2)cc1 [Fenbufen]	> 46 µM
COP(=S)(OC)Oc1cc(Cl)c(Cl)cc1Cl [Fenchlorphos]	> 46 µM
O=C(O)Cc1ccccc1Oc1ccc(Cl)cc1Cl [Fenclofenac]	> 46 µM
O=C(O)Cc1csc(-c2ccc(Cl)cc2)n1 [Fenclozic acid]	> 46 µM
CC(Cc1ccccc1)NCCn1cnc2c1c(=O)n(C)c(=O)n2C (configuration not stated) [Fenethylline]	> 46 µM
NC(=O)NNc1ccccc1 [Fenicarbazida]	> 46 µM
CNC[C@H](O)c1cccc(O)c1 [Fenilefrina]	> 46 µM
CN1CC(=O)\N=C1\NC(=O)NC2=CC(=CC=C2)Cl [Fenobam]	> 46 µM
CC(C)OC(=O)C(C)(C)Oc1ccc(C(=O)c2ccc(Cl)cc2)cc1 [Fenofibrate]	> 46 µM
O=[S+]1([O-])OC(c2ccc(O)cc2)(c2ccc(O)cc2)c2ccccc21 [Fenolipuna]	> 46 µM
C[C@H](C(=O)[O-])c1cccc(Oc2ccccc2)c1.C[C@H](C(=O)[O-])c1cccc(Oc2ccccc2)c1.O.O.[Ca+2] [Fenoprofen calcium salt dihydrate]	> 46 µM
C[C@@H](Cc1ccc(O)cc1)NC[C@@H](O)c1cc(O)cc(O)c1 [Fenoterol hydrobromide]	> 46 µM
c1ccc2c(c1)Nc1ccccc1S2 [Fenotiazina]	> 46 µM
CC(COc1ccccc1)N(CCCl)Cc1ccccc1 (configuration not stated) [Fenoxibenzamina]	> 46 µM

SMILES	IC50 of cell viability
COP(=S)(OC)Oc1ccc(SC)c(C)c1 [Fenthion (Baytex)]	> 46 µM
O=C(O)Cc1sc(-c2ccccc2)nc1-c1ccc(Cl)cc1 [Fentiazac]	> 46 µM
O=C(O)CC1=S=C(c2ccccc2)N=C1c1ccc(Cl)cc1 [Fentiazac]	> 46 µM
Oc1ccc(Cl)cc1Sc1cc(Cl)ccc1O [Fenticlor]	> 46 µM
C\C(C)=C\CC1C(=O)N(N(C1=O)C2=CC=CC=C2)C3=CC=CC=C3 [Feprazone]	> 46 µM
O=C([O-])CN(CCN(CC(=O)[O-])CC(=O)[O-])CC(=O)[O-].[Fe+3].[Na+] [Feredato sodico]	> 46 µM
CC(C)(C(=O)O)c1ccc(C(O)CCCN2CCC(C(O)(c3ccccc3)c3ccccc3)CC2)cc1 (configuration not stated) [Fexofenadine]	> 46 µM
COc1cccc2c1[C@@H]1CN(CCCCn3c(=O)[nH]c4c(sc5ncc(-c6ccccc6)nc54)c3=O)C[C@@H]1CO2 [Fiduxosin hydrochloride]	> 46 µM
CC(C)(C)NC(=O)[C@@H]1CC[C@@H]2[C@@H]3CC[C@@H]4NC(=O)\C=C/[C@@]4(C)[C@H]3CC[C@@]12C [Finasteride]	> 46 µM
COc1cc(O)cc(O)c1 [Flamenol]	> 46 µM
O=C1/C=C(OC2=CC=CC=C12)/C3=CC=CC=C3 [Flavone]	> 46 µM
C\C1=C(\OC2=C(C=CC=C2C(=O)OCCN3CCCCC3)C1=O)C4=CC=CC=C4 [Flavoxate hydrochloride]	> 46 µM
CN1CCC(O)(c2ccc(F)cc2)C(C(=O)c2ccc(F)cc2)C1 (configuration not stated) [Flazalone]	> 46 µM
CN(C)CCC=C1C2=C(C=CC=C2)\C=C/C3=C1C=CC=C3 [Flexeril]	> 46 µM
CO[C@@]1(NC(=O)CSC(F)F)C(=O)N2C(C(=O)O)=C(CSc3nnnn3CCO)CO[C@@H]21 [Flomoxef]	> 46 µM
C[S+](=O)([O-])c1ccc([C@H](O)[C@H](CF)NC(=O)C(Cl)Cl)cc1 [Florfenicol]	> 46 µM
CN1/C=C(/[S+](C)[O-])C(=O)C2=C1C=C(F)C=C2 (configuration not stated) [Flosequinan]	> 46 µM
CC1=C(C(=O)N[C@H]2[C@@H]3SC(C)(C)[C@H]([N@@]3C2=O)C(O)=O)C(=NO1)C4=C(Cl)C=CC=C4F [Floxacillin]	> 46 µM
OC[C@H]1O[C@H](C[C@@H]1O)N2\C=C(F)/C(=O)NC2=O [Floxuridine]	> 46 µM
O=C(NC(=O)c1c(F)cccc1F)Nc1ccc(Cl)c(Oc2ncc(C(F)(F)F)cc2Cl)c1 [Fluazuron]	> 46 µM
NC/1=N/C(=O)N/C=C1F [Flucytosine]	> 46 µM
CC(=O)[C@@]1(O)CC[C@@H]2[C@@H]3CCC/4=C/C(=O)CC[C@]4(C)[C@]3(F)[C@@H](O)C[C@]12C [Flugestone]	> 46 µM
O=C1c2ccccc2C(=O)C1c1ccc(F)cc1 [Fluindiona]	> 46 µM
C[C@@H]1C[C@H]2[C@@H]3C[C@H](F)C/4=C/C(=O)/C=C\[C@]4(C)[C@@]3(F)[C@@H](O)C[C@]2(C)[C@@]1(O)C(=O)COC(=O)C(C)(C)C [Flumethasone pivalate]	> 46 µM
C[C@@H]1C[C@@H]2[C@@H]3C[C@@H](F)\C4=C\C(=O)\C=C/[C@]4(C)[C@@]3(F)[C@H](O)C[C@@]2(C)[C@@]1(O)C(=O)CO [Flumethasone]	> 46 µM

Reference: the supplement of paper PMC3974653
